Measured values as given in the kinase profiling compilation of Christmann-Franck et al. (2016).

Legend:
Experiment in all cases: KINOMEscan competition binding
Details in all cases: compound 10.0 µM
[1] = tested on: ABL1 (human), P00519 [F317I]
[2] = tested on: ABL1 (human), P00519 [F317L]
[3] = tested on: BMX (human), P51813 [V600E]
[4] = tested on: EGFR (human), P00533 [A750P; 747-749 del]
[5] = tested on: EGFR (human), P00533 [G719C]
[6] = tested on: EGFR (human), P00533 [L858R]
[7] = tested on: FGFR3 (human), P22607 [G697C]
[8] = tested on: FLT3 (human), P36888 [D835Y]
[9] = tested on: MET (human), P08581 [M1250T]
[10] = tested on: PIK3CA (human), P42336 [E542K]
[11] = tested on: PIK3CA (human), P42336 [H1047L]
[12] = tested on: PIK3CA (human), P42336 [M1043I]
[13] = tested on: RET (human), P07949 [V804L]
[14] = tested on: KIT (human), P10721 [A829P]
[15] = tested on: KIT (human), P10721 [D816H]
[16] = tested on: LRRK2 (human), Q5S007 [G2019S]

Sequence of PIK3CA (human), P42336 [M1043I] (P42336 whole entry M1043I, looked up): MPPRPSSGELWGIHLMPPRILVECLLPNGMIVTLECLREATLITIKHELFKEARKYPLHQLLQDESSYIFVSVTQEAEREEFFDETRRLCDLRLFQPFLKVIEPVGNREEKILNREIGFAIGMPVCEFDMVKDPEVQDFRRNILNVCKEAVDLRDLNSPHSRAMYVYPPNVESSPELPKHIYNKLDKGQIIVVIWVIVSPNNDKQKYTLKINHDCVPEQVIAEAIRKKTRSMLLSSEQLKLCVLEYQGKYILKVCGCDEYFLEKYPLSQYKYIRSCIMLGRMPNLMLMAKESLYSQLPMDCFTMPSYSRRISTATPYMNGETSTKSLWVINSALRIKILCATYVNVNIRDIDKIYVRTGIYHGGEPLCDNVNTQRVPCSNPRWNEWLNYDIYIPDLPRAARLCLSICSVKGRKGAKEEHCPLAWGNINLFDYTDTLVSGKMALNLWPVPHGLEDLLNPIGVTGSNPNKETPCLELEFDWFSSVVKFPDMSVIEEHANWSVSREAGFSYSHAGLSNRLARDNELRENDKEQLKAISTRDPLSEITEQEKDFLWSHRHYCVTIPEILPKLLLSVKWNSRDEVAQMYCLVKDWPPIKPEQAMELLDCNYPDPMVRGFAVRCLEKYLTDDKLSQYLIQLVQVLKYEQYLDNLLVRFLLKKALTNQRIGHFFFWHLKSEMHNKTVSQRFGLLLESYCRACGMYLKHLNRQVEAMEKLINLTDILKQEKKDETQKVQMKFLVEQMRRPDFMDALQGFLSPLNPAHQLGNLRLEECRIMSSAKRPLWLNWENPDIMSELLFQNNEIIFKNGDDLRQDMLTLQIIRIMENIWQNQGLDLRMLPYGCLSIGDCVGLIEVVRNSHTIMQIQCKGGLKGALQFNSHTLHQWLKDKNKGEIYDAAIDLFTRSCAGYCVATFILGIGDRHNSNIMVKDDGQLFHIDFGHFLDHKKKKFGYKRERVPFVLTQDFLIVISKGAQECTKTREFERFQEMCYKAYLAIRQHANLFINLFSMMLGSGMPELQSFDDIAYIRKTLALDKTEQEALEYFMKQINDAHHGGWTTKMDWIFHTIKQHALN
Sequence of BMX (human), P51813 [V600E] (P51813 whole entry, looked up, stated change not applied): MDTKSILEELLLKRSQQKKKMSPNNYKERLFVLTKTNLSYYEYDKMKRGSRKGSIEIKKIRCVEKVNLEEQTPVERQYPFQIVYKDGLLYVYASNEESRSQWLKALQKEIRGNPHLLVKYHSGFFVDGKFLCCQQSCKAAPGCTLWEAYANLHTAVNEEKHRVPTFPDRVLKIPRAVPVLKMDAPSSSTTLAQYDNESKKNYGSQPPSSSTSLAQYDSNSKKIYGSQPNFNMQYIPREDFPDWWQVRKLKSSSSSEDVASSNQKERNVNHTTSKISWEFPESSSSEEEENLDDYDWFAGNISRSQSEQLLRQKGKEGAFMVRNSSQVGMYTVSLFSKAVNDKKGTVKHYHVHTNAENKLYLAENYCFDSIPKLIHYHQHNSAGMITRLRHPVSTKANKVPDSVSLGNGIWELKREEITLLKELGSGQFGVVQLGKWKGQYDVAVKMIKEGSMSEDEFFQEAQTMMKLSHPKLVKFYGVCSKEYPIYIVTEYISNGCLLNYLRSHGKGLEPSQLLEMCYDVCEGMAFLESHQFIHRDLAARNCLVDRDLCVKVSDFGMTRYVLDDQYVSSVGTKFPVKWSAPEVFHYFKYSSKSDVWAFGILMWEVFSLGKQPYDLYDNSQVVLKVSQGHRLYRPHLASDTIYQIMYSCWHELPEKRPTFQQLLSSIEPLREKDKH
Sequence of RET (human), P07949 [V804L] (P07949 whole entry V804L, looked up): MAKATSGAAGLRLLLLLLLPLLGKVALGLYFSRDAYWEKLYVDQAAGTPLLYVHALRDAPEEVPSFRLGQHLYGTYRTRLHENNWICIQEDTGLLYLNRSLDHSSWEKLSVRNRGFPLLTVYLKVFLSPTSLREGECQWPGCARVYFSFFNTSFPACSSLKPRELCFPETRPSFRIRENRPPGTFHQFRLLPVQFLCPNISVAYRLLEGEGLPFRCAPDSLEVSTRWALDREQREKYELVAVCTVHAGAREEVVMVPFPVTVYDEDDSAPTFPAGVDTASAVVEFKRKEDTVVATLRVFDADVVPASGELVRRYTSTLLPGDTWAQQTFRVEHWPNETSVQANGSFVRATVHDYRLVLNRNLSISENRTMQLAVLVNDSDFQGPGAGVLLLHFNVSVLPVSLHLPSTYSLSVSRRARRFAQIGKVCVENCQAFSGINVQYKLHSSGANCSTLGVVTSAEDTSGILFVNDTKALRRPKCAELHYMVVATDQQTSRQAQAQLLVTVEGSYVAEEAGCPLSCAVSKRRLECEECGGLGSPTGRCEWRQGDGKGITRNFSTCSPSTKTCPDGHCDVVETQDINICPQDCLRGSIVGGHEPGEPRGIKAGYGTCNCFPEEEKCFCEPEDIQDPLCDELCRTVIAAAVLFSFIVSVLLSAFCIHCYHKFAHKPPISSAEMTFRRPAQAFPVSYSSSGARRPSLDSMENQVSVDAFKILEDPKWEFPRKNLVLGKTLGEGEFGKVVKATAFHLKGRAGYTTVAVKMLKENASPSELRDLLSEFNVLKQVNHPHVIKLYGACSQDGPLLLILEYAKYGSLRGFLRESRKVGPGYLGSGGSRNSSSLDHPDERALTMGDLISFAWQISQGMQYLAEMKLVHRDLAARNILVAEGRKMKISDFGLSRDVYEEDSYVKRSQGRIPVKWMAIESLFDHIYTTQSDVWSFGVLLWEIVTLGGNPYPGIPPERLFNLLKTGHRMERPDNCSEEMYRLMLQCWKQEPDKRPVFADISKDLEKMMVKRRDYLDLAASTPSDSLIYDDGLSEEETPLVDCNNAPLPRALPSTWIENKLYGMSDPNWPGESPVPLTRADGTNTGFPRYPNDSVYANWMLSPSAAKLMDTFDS
Sequence of PIK3CA (human), P42336 [E542K] (P42336 whole entry E542K, looked up): as the sequence (P42336 whole entry M1043I, looked up) above, with E542K, I1043M counted along it
Sequence of ABL1 (human), P00519 [F317I] (P00519 whole entry F317I, looked up): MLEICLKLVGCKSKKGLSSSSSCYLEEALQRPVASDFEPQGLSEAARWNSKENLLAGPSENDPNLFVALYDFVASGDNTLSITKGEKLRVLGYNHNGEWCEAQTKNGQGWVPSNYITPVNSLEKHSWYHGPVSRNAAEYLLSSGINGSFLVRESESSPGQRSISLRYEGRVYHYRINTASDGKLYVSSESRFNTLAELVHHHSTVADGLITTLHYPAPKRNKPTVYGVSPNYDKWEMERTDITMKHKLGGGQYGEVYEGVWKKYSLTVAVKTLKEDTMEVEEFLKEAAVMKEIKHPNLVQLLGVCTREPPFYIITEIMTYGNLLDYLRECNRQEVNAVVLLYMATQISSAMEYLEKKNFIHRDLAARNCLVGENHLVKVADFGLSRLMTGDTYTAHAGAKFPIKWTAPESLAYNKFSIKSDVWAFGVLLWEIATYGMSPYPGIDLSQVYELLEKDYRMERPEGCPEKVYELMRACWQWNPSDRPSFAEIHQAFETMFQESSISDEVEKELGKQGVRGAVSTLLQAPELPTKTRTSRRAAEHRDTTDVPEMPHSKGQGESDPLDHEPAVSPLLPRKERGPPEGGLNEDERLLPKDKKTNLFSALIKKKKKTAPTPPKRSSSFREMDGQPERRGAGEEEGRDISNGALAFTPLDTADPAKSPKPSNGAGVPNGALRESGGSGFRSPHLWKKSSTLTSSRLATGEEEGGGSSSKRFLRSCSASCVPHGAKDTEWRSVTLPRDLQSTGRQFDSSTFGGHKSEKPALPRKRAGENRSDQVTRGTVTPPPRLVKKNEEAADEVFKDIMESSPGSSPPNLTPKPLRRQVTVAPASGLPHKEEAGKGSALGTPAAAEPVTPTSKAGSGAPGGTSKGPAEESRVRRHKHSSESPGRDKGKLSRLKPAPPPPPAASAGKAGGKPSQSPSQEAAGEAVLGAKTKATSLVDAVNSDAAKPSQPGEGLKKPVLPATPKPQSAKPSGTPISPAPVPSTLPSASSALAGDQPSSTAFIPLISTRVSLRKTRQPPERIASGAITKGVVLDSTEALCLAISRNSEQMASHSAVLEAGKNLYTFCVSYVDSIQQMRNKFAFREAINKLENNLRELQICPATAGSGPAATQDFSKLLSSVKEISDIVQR
Sequence of FGFR3 (human), P22607 [G697C] (P22607 whole entry G697C, looked up): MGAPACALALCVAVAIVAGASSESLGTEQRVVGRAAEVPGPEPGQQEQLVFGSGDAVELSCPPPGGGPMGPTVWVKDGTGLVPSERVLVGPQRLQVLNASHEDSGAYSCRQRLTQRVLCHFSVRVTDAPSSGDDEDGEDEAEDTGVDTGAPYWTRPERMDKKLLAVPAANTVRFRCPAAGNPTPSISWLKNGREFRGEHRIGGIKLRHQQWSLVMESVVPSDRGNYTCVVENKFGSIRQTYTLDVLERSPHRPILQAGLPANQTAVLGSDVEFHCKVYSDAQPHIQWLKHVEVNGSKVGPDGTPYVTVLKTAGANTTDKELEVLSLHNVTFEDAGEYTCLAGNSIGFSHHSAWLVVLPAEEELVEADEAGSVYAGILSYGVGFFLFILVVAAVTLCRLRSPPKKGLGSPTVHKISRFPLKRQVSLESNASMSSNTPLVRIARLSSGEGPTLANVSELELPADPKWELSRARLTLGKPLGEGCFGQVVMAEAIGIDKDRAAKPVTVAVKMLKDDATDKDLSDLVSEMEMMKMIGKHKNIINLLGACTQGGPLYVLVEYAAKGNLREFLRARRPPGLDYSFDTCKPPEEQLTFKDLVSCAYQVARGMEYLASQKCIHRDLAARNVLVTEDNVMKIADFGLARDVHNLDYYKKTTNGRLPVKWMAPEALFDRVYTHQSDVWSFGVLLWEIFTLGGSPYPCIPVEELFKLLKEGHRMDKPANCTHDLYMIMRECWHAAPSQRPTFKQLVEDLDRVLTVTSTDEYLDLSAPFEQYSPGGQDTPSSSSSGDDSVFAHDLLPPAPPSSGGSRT
Sequence of PIK3CA (human), P42336 [H1047L] (P42336 whole entry H1047L, looked up): as the sequence (P42336 whole entry M1043I, looked up) above, with I1043M, H1047L counted along it
Sequence of ABL1 (human), P00519 [F317L] (P00519 whole entry F317L, looked up): as the sequence (P00519 whole entry F317I, looked up) above, with I317L counted along it

Structure (SMILES) | kinase still bound, per cent of control [1] [%] | kinase still bound, per cent of control [2] [%] | kinase still bound, per cent of control [3] [%] | kinase still bound, per cent of control [4] [%] | kinase still bound, per cent of control [5] [%] | kinase still bound, per cent of control [6] [%] | kinase still bound, per cent of control [7] [%] | kinase still bound, per cent of control [8] [%] | kinase still bound, per cent of control [9] [%] | kinase still bound, per cent of control [10] [%] | kinase still bound, per cent of control [11] [%] | kinase still bound, per cent of control [12] [%] | kinase still bound, per cent of control [13] [%] | kinase still bound, per cent of control [14] [%] | kinase still bound, per cent of control [15] [%] | kinase still bound, per cent of control [16] [%]
CCN(CC)CCCCNc1ncc2c(n1)N(C)C(=O)N(c1c(Cl)c(OC)cc(OC)c1Cl)C2 | 100 | 100 | 100 | 100 | 100 | 100 | 1.3 | 100 | 100 | 100 | 100 | 100 | 100 | – | – | –
CS(=O)(=O)N1CCN(Cc2cc3nc(-c4cccc5[nH]ncc45)nc(N4CCOCC4)c3s2)CC1 | 100 | 100 | 100 | 100 | 100 | 100 | 100 | 100 | 100 | 0.45 | 9.8 | 19 | 100 | – | – | –
COc1cc(C(=O)NC2CCN(C)CC2)ccc1Nc1ncc2c(n1)N(C1CCCC1)C(C)CC(=O)N2C (configuration not stated) | 100 | 100 | 100 | 100 | 100 | 100 | 100 | 100 | – | – | – | – | 100 | – | – | –
COc1cc(C(=O)NC2CCN(C)CC2)ccc1Nc1ncc2c(n1)N(C1CCCC1)CCC(=O)N2C(C)C | 100 | 100 | 100 | 100 | 100 | 100 | 100 | 100 | 100 | 100 | 100 | 100 | 0 | – | – | –
CNC(=O)c1ccc(Nc2cc(Nc3ccccc3S(=O)(=O)C(C)C)c3cc[nH]c3n2)nc1 | 30 | 28 | 100 | 100 | 100 | 100 | 20 | 0.1 | – | – | – | – | 0.2 | – | – | –
C=CC(=O)Nc1ccc(CN(C(=O)Nc2c(Cl)c(OC)cc(OC)c2Cl)c2cc(Nc3ccc(N4CCN(C)CC4)cc3)ncn2)cc1 | 100 | 100 | 100 | 0.55 | 0.1 | 0.2 | 1.4 | 100 | – | – | – | – | 100 | – | – | –
CCOc1cc2ncc(C#N)c(Nc3ccc(OCc4ccccn4)c(Cl)c3)c2cc1NC(=O)/C=C/CN(C)C | – | 100 | 100 | – | – | – | 100 | – | 47 | 100 | 100 | 100 | 100 | 100 | 88 | 85
CC[C@@H]1C(=O)N(C)c2cnc(Nc3ccc(C(=O)NC4CCN(C)CC4)cc3OC)nc2N1C1CCCC1 | 100 | 100 | 100 | – | – | – | 100 | 100 | – | – | – | – | 100 | – | – | –
Cc1ccc(C(=O)Nc2cccc(C(F)(F)F)c2)cc1Nc1cncc(C(N)=O)c1 | 13 | 22 | 0.15 | 100 | 100 | 100 | 100 | 100 | – | – | – | – | 100 | – | – | –
COc1cc(N2CCN(C)CC2)ccc1Nc1ncc2c(n1)N(C)c1ccccc1C(=O)N2C | 5 | 17 | 100 | 100 | 100 | 100 | 100 | 100 | 100 | 100 | 100 | 100 | 100 | – | – | –
Cc1n[nH]c2ccc(-c3cncc(OC[C@@H](N)Cc4c[nH]c5ccccc45)c3)cc12 | 100 | 100 | 100 | – | – | – | 100 | 0.2 | – | – | – | – | 12 | – | – | –
OCCCNc1cc(-c2ccnc(Nc3cccc(Cl)c3)n2)ccn1 | 100 | 100 | 100 | 100 | 100 | 100 | 100 | 19 | 100 | 100 | 100 | 100 | 100 | – | – | –
Cn1c(=O)n(-c2ccc(C(C)(C)C#N)cc2)c2c3cc(-c4cnc5ccccc5c4)ccc3ncc21 | 100 | 100 | 100 | 100 | 100 | 100 | 100 | 12 | – | 2.8 | 4.8 | – | 100 | – | – | –
C=CC(=O)Nc1cccc(Oc2nc(Nc3ccc(N4CCN(C)CC4)cc3OC)ncc2Cl)c1 | 100 | 100 | 100 | 0.05 | 0.35 | 0.1 | 100 | 0.8 | – | – | – | – | 100 | – | – | –
COc1cc(C(=O)N2CCC(N3CCN(C)CC3)CC2)ccc1Nc1ncc2c(n1)N(C)c1ccccc1C(=O)N2C | – | – | 100 | 78 | 100 | 79 | 85 | 100 | 96 | 77 | 20 | 65 | 89 | 100 | 100 | 5
CCN1CCN(Cc2ccc(Nc3ncc4c(n3)N(C)c3ccccc3C(=O)N4C)cc2C(F)(F)F)CC1 | – | – | 100 | 79 | 89 | 76 | 31 | 3.5 | 71 | 24 | 1.8 | 15 | 0.9 | 59 | 65 | 18
